Experimental data: article PMC6861653 (Chembiochem : a European journal of chemical biology, 2019)
*1 amine or outer side, *2 acyl side, *3 side chain or, on linkers, in order; H or OH if unused. Where a SMILES comes first, the peptide text is derived from it. [ ]: non-standard residue; d: D form. X1 = O=C([C@H]1CCC[C@@H]1N[*:1])[*:2]

How the values were obtained:
Assay type in all cases: cell-based
GLP-1R [1] = molecular target: T1, GLP-1R (Homo sapiens, UniProt P43220); conditions: HEK293 GloSensor cells transiently expressing GLP-1R
T1 sequence (P43220 24-463, species assumed): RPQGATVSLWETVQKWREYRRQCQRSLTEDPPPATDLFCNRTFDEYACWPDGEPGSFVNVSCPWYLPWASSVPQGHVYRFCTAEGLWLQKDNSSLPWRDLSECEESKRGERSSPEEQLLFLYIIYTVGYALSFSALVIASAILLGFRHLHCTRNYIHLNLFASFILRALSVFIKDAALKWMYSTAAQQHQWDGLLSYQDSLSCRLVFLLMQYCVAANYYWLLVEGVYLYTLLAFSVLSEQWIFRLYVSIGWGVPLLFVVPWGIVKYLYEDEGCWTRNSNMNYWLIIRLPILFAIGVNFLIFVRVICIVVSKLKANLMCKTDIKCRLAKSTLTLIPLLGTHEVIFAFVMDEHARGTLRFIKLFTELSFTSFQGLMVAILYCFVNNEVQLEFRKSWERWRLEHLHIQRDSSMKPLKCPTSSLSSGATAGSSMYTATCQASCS

[2] = molecular target: GLP-1R-RLuc8 / GFP^2-β-arrestin-2(R393E, R395E) (Homo sapiens, UniProt P43220); test: β-arrestin-2 recruitment to GLP-1R, BRET assay in HEK293FT cells
Chain of GLP-1R-RLuc8 / GFP^2-β-arrestin-2(R393E, R395E) (P43220 24-463, stated change not applied): as the sequence (P43220 24-463, species assumed) above

[3] = molecular target: GLP-1R-RLuc8 / GFP^2-β-arrestin-1 (Homo sapiens, UniProt P43220); test: β-arrestin-1 recruitment to GLP-1R, BRET assay in HEK293FT cells
Chain of GLP-1R-RLuc8 / GFP^2-β-arrestin-1 (P43220 24-463): as the sequence (P43220 24-463, species assumed) above
Chain of GLP-1R-RLuc8 / GFP^2-β-arrestin-1 (P49407 whole entry partner): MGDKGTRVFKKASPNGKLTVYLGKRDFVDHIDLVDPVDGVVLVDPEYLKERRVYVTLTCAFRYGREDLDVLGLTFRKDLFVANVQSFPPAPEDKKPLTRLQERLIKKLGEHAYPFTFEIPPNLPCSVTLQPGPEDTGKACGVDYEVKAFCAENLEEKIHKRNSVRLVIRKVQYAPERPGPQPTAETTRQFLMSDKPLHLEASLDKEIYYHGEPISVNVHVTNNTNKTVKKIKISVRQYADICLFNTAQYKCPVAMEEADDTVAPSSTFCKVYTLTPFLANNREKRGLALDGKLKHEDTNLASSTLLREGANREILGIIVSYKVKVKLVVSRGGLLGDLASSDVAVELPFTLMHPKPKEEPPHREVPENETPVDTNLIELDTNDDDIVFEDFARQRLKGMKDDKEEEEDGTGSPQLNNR

GLP-1R [4] = molecular target: T1, GLP-1R; test: Signaling bias by Black-Leff operational model

Compound | GLP-1R activation by cAMP production, in words (GLP-1R [1]) | β-arrestin-2 recruitment to the GLP-1R, in words [2] | β-arrestin-1 recruitment to the GLP-1R, in words [3] | Signal bias relative to GLP-1, in words (GLP-1R [4])
CC[C@H](C)[C@H](NC(=O)[C@H]1CCC[C@@H]1NC(=O)[C@H](CCC(=O)O)NC(=O)[C@H](CCCCN)NC(=O)[C@H](C)NC(=O)[C@H]1CCC[C@@H]1NC(=O)[C@H](CCC(N)=O)NC(=O)CNC(=O)[C@H](CCC(=O)O)NC(=O)[C@H]1CCC[C@@H]1NC(=O)[C@H](Cc1ccc(O)cc1)NC(=O)[C@H](CO)NC(=O)[C@H](CO)NC(=O)[C@@H](NC(=O)[C@H](CC(=O)O)NC(=O)[C@H](CO)NC(=O)[C@@H](NC(=O)[C@H](Cc1ccccc1)NC(=O)[C@@H](NC(=O)CNC(=O)[C@H](CCC(=O)O)NC(=O)[C@H](C)NC(=O)[C@@H](N)Cc1c[nH]cn1)[C@@H](C)O)[C@@H](C)O)C(C)C)C(=O)N[C@@H](C)C(=O)N[C@@H](Cc1c[nH]c2ccccc12)C(=O)N[C@H]1CCC[C@@H]1C(=O)N[C@H](C(=O)N[C@@H](CCCCN)C(=O)NCC(=O)N[C@H]1CCC[C@@H]1C(=O)NCC(N)=O)C(C)C [3b] (H-HAEGTFTSDVSSY[X1]EGQ[X1]AKE[X1]IAW[X1]VKG[X1]G-NH2; N-terminus assumed) | no activation of the GLP-1R could be detected | inability to induce recruitment of either β-arrestin | inability to induce recruitment of either β-arrestin | –
CC[C@H](C)[C@H](NC(=O)[C@H](Cc1ccccc1)NC(=O)[C@H](CCC(=O)O)NC(=O)[C@H]1CCC[C@@H]1NC(=O)[C@H](C)NC(=O)[C@H](C)NC(=O)[C@H](CCC(N)=O)NC(=O)[C@H]1CCC[C@@H]1NC(=O)[C@H](CCC(=O)O)NC(=O)[C@H](CC(C)C)NC(=O)[C@H](Cc1ccc(O)cc1)NC(=O)[C@H]1CCC[C@@H]1NC(=O)[C@H](CO)NC(=O)[C@@H](NC(=O)[C@H](CC(=O)O)NC(=O)[C@H](CO)NC(=O)[C@@H](NC(=O)[C@H](Cc1ccccc1)NC(=O)[C@@H](NC(=O)CNC(=O)[C@H](CCC(=O)O)NC(=O)[C@H](C)NC(=O)[C@@H](N)Cc1c[nH]cn1)[C@@H](C)O)[C@@H](C)O)C(C)C)C(=O)N[C@H]1CCC[C@@H]1C(=O)N[C@@H](Cc1c[nH]c2ccccc12)C(=O)N[C@@H](CC(C)C)C(=O)N[C@H](C(=O)N[C@H]1CCC[C@@H]1C(=O)NCC(=O)N[C@@H](CCCNC(=N)N)C(N)=O)C(C)C [1b] (H-HAEGTFTSDVS[X1]YLE[X1]QAA[X1]EFI[X1]WLV[X1]GR-NH2; N-terminus assumed) | – | – | – | biased toward β-arrestin-2 recruitment vs. cAMP production
CC(C)C[C@H](NC(=O)[C@H](Cc1ccc(O)cc1)NC(=O)[C@H](CO)NC(=O)[C@H]1CCC[C@@H]1NC(=O)[C@@H](NC(=O)[C@H](CC(=O)O)NC(=O)[C@H](CO)NC(=O)[C@@H](NC(=O)[C@H](Cc1ccccc1)NC(=O)[C@@H](NC(=O)CNC(=O)[C@H](CCC(=O)O)NC(=O)[C@H](C)NC(=O)[C@@H](N)Cc1c[nH]cn1)[C@@H](C)O)[C@@H](C)O)C(C)C)C(=O)N[C@H]1CCC[C@@H]1C(=O)NCC(=O)N[C@@H](CCC(N)=O)C(=O)N[C@@H](C)C(=O)N[C@H]1CCC[C@@H]1C(=O)N[C@@H](CCCCN)C(=O)N[C@@H](CCC(=O)O)C(=O)N[C@@H](Cc1ccccc1)C(=O)N[C@H]1CCC[C@@H]1C(=O)N[C@@H](C)C(=O)N[C@@H](Cc1c[nH]c2ccccc12)C(=O)N[C@@H](CC(C)C)C(=O)N[C@H]1CCC[C@@H]1C(=O)N[C@@H](CCCCN)C(=O)NCC(=O)N[C@@H](CCCNC(=N)N)C(N)=O [4b] (H-HAEGTFTSDV[X1]SYL[X1]GQA[X1]KEF[X1]AWL[X1]KGR-NH2; N-terminus assumed) | – | – | – | balanced signaling behavior
CC[C@H](C)[C@H](NC(=O)[C@H](Cc1ccccc1)NC(=O)C[C@H](CCC(=O)O)NC(=O)[C@H](CCCCN)NC(=O)[C@H](C)NC(=O)[C@H](C)NC(=O)C[C@H](CCC(N)=O)NC(=O)CNC(=O)[C@H](CCC(=O)O)NC(=O)[C@H](CC(C)C)NC(=O)C[C@H](Cc1ccc(O)cc1)NC(=O)[C@H](CO)NC(=O)[C@H](CO)NC(=O)[C@@H](NC(=O)[C@H](CC(=O)O)NC(=O)[C@H](CO)NC(=O)[C@@H](NC(=O)[C@H](Cc1ccccc1)NC(=O)[C@@H](NC(=O)CNC(=O)[C@H](CCC(=O)O)NC(=O)[C@H](C)NC(=O)[C@@H](N)Cc1c[nH]cn1)[C@@H](C)O)[C@@H](C)O)C(C)C)C(=O)N[C@@H](C)C(=O)N[C@H](CC(=O)N[C@@H](CC(C)C)C(=O)N[C@H](C(=O)N[C@@H](CCCCN)C(=O)NCCC(=O)N[C@@H](CCCNC(=N)N)C(N)=O)C(C)C)Cc1c[nH]c2ccccc12 [2a] | – | – | – | modestly biased toward cAMP production relative to β-arrestin-1 recruitment
CC[C@H](C)[C@H](NC(=O)[C@H](Cc1ccccc1)NC(=O)[C@H]1CCC[C@@H]1NC(=O)[C@H](CCCCN)NC(=O)[C@H](C)NC(=O)[C@H](C)NC(=O)[C@H]1CCC[C@@H]1NC(=O)CNC(=O)[C@H](CCC(=O)O)NC(=O)[C@H](CC(C)C)NC(=O)[C@H]1CCC[C@@H]1NC(=O)[C@H](CO)NC(=O)[C@H](CO)NC(=O)[C@@H](NC(=O)[C@H](CC(=O)O)NC(=O)[C@H](CO)NC(=O)[C@@H](NC(=O)[C@H](Cc1ccccc1)NC(=O)[C@@H](NC(=O)CNC(=O)[C@H](CCC(=O)O)NC(=O)[C@H](C)NC(=O)[C@@H](N)Cc1c[nH]cn1)[C@@H](C)O)[C@@H](C)O)C(C)C)C(=O)N[C@@H](C)C(=O)N[C@H]1CCC[C@@H]1C(=O)N[C@@H](CC(C)C)C(=O)N[C@H](C(=O)N[C@@H](CCCCN)C(=O)N[C@H]1CCC[C@@H]1C(=O)N[C@@H](CCCNC(=N)N)C(N)=O)C(C)C [2b] (H-HAEGTFTSDVSS[X1]LEG[X1]AAK[X1]FIA[X1]LVK[X1]R-NH2; N-terminus assumed) | – | – | – | smaller bias toward β-arrestin-2 vs. cAMP production
